{"source": "patent US20030176479A1", "about": "“Use of selective EP4 receptor agonists for the treatment of liver failure, loss of patency of the ductus arteriosus, glaucoma or ocular hypertension” (priority 2002, published 2003)", "key": {"rat EP4 receptor [1]": {"target": "T1, rat EP4 receptor (Rattus norvegicus, UniProt P43114)", "T1 construct": "expressed in transfected cells", "T1 sequence (P43114 whole entry)": "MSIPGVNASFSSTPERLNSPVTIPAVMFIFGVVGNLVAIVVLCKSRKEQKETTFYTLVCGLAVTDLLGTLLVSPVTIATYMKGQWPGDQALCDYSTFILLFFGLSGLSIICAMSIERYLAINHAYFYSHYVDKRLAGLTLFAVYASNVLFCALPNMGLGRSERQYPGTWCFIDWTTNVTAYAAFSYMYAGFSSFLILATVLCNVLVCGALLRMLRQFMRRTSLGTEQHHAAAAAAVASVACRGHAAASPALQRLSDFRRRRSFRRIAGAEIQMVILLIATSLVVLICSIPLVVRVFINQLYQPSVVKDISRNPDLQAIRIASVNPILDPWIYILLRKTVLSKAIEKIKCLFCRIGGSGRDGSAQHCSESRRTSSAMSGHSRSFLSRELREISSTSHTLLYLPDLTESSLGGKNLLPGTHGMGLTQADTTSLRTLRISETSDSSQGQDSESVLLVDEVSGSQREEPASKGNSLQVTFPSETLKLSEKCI", "assay": "Whole cell 3H-PGE2 binding, Scatchard analysis of 293S/EP4 transfectants", "conditions": "cell lines selected for compound screening", "experimental": "(§1) Clonal cell lines expressing the maximal number of receptors are chosen following a whole cell ^3H-PGE2 binding assay using unlabeled PGE2 as a competitor. […] Constitutive expression of the receptor in parental 293-S cells is negligible. A stable cell line containing the rat EP4 receptor is grown in Dulbecco's Mosified Eagle Medium/F12 (DMEM/F12) containing 10% fetal bovine serum and G418 (500 μg/ml) to 80% confluency."}, "human EP3 receptor": {"target": "T2, human EP3 receptor (Homo sapiens, UniProt P43115)", "T2 construct": "expressed in transfected cells", "T2 sequence (P43115 1-390)": "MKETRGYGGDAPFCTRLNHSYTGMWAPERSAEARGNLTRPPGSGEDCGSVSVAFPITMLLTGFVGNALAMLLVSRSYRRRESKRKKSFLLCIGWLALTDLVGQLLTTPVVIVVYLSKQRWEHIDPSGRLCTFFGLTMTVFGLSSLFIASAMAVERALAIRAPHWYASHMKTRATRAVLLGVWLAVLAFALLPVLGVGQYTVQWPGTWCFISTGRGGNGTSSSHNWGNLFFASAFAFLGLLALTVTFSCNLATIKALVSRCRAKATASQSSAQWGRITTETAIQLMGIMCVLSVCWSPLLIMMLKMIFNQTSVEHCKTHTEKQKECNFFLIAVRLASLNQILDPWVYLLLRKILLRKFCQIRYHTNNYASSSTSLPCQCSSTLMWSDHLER", "assay": "Human EP3 receptor binding assay (3H-PGE2 displacement, 293S cell membranes)", "conditions": "displacement of 3H-prostaglandin E2, 293S membranes, 1 hour at 25° C.", "excerpt": "(§2) The compounds of Formula I or II, which are useful in the methods of the present invention, bind to the prostaglandin E2 type 4 receptor (EP4 receptor). The full-length coding sequence for the human EP1 receptor is made in accordance with the procedure in Funk et al., Journal of Biological Chemistry, 1993, 268, 26767-26772. The full-length rat EP2 receptor is made in accordance with the procedure in Nemoto et al., Prostaglandins and other Lipid Mediators, 1997, 54, 713-725. The full-length coding sequence for the human EP3 receptor is made in accordance with the procedure in Regan et al., British Journal of Pharmacology, 1994, 112, 377-385. The full-length coding sequence for the rat EP4 receptor is made in accordance with the procedure in Sando et al., Biochem. Biophys. Res. Comm. 1994, 200,1329-1333. These full-length receptors are used to prepare 293S cells expressing the human EP1, rat EP2, human EP3 or rat EP4 receptors.\n(§3) Human EP1, Rat EP2, Human EP3, Rat EP4 Receptor Binding Assay\n(§4) The full-length receptors described above are used to prepare 293S cells expressing the EP1, EP2, EP3, and EP4 receptors.\n(§5) 293S cells expressing either the human EP1, rat EP2, human EP3 or rat EP4 prostaglandin E2 receptors are generated according to methods known to those skilled in the art. Typically, PCR (polymerase chain reaction) primers corresponding to the 5′ and 3′ ends of the published full length receptor are made according to the well known methods disclosed above and are used in an RT-PCR (reverse transcriptase-polymerase chain reaction) reaction using the total RNA from human kidney (for EP1), rat kidney (for EP2), human lung (for EP3), or rat kidney (EP4) as a source. PCR products are cloned by the TA overhang method into pCR2.1 (Invitrogen Corporation, Carlsbad, Calif.) and identity of the cloned receptor is confirmed by DNA sequencing. For expression of the rat EP2 receptor, the confirmed cDNA is subcloned into the mammalian expression vector PURpCl, a vector generated by subcloning the selectable marker for puromycin resistance into the mammalian expression vector pCl (Promega, Madison, Wis.)\n(§6) 293S cells are transfected with either the cloned human EP1 or EP3 receptor in pcDNA3 by electroporation. Stable cell lines expressing either the human EP1 or EP3 receptor are established following selection of transfected cells with G418. 293S cells are transfected with the cloned rat EP2 receptor in PURpCi by lipid mediated transfection. Stable cell lines expressing the rat EP2 receptor are established following selection of transfected cells with puromycin. 293S cells are transfected with the cloned rat EP4 receptor in pcDNA3 by lipid mediated transfection. Stable cell lines expressing the rat EP4 receptor are established following selection of transfected cells with Geneticin® (Invitrogen, Carlsbad, Calif.).\n(§7) Clonal cell lines expressing the maximal number of receptors are chosen following a whole cell ^3H-PGE2 binding assay using unlabeled PGE2 as a competitor.\n(§8) Membrane Preparation: All operations are performed at 4° C. Transfected cells expressing either prostaglandin E2 type 1, type 2, type 3, or type 4 (EP1, EP2, EP3, or EP4, respectively) receptors are harvested and suspended to 2 million cells per ml in Buffer A [50 mM Tris-HCl (pH 7.4), 10 mM MgCI2, 1 mM EDTA, 1 mM Pefabloc peptide, (Boehringer Mannheim Corp., Indianapolis, Ind.), 10 uM Phosporamidon peptide, (Sigma, St. Louis, Mo.), 1 uM pepstatin A peptide, (Sigma, St. Louis, Mo.), 10 uM elastatinal peptide, (Sigma, St. Louis, Mo.), 100 uM antipain peptide, (Sigma, St. Louis, Mo.)]. The cells are lysed by sonification with a Branson Sonifier (Branson Ultrasonics Corporation, Danbury, Conn.) in 2 fifteen-second bursts. Unlysed cells and debris are removed by centrifugation at 100 ×g for 10 min. Membranes are then harvested by centrifugation at 45,000×g for 30 minutes. […]"}, "rat EP4 receptor [2]": {"target": "T1, rat EP4 receptor", "assay": "Rat EP4 receptor binding assay (3H-PGE2 displacement, 293S cell membranes)", "conditions": "displacement of 3H-prostaglandin E2, 293S membranes, 1 hour at 25° C.", "excerpt": "as §2, §3, §4, §5, §6, §7, §8"}, "human EP1 receptor": {"target": "T3, human EP1 receptor (Homo sapiens, UniProt P34995)", "T3 construct": "expressed in transfected cells", "T3 sequence (P34995 1-402)": "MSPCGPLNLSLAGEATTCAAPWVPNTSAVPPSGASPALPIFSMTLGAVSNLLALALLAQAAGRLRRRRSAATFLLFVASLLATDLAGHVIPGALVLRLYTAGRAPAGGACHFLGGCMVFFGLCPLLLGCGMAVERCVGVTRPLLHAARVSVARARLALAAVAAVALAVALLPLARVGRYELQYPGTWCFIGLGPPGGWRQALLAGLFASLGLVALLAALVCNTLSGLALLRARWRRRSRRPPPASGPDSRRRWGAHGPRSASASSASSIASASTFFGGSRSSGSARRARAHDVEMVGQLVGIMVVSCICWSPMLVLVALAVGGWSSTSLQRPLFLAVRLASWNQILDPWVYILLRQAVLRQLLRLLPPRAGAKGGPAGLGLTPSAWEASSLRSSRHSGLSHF", "assay": "Human EP1 receptor binding assay (3H-PGE2 displacement, 293S cell membranes)", "conditions": "displacement of 3H-prostaglandin E2, 293S membranes, 1 hour at 25° C.", "excerpt": "as §2, §3, §4, §5, §6, §7, §8"}, "rat EP2 receptor": {"target": "T4, rat EP2 receptor (Rattus norvegicus, UniProt Q62928)", "T4 construct": "The full-length rat EP2 receptor is made in accordance with the procedure in Nemoto et al; expressed in transfected cells", "T4 sequence (Q62928 whole entry)": "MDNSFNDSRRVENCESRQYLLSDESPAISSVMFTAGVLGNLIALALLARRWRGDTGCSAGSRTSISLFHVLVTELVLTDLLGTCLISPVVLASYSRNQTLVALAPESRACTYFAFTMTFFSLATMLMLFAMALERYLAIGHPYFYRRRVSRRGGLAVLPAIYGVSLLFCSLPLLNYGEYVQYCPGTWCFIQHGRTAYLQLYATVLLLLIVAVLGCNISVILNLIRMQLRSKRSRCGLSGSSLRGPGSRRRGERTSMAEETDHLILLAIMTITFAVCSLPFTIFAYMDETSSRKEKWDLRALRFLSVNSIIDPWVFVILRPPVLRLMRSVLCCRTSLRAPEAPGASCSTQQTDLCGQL", "assay": "Rat EP2 receptor binding assay (3H-PGE2 displacement, 293S cell membranes)", "conditions": "displacement of 3H-prostaglandin E2, 293S membranes, 1 hour at 25° C.", "excerpt": "as §2, §3, §4, §5, §6, §7, §8"}, "rat EP4 receptor [3]": {"target": "T1, rat EP4 receptor", "assay": "Cyclic AMP elevation in 293S cell lines stably overexpressing recombinant rat EP4 receptors", "type": "cell-based", "conditions": "293S cells expressing rat EP4, 1 mM IBMX, 12 minutes at 37° C.; read-out: EC50 in the cAMP (rat EP4) elevation assay", "excerpt": "Determination of Cyclic AMP Elevation in 293S Cell Lines Stably Overexpressing Recombinant Rat EP4 Receptors Assay\ncDNA representing the complete open reading frame of the rat EP4 receptor is generated by reverse transcriptase polymerase chain reaction using oligonucleotide primers based on published sequences. The full length coding sequence for the rat EP4 receptor is made in accordance with the procedure in Sando et al., Biochem. Biophys. Res. Comm. 1994, 200, 1329-1333, and RNA from rat kidney (EP4) as templates. 293S cells are transfected with the cloned rat EP4 receptor in pcDNA3 by lipid mediated transfection. Stable cell lines expressing the rat EP4 receptor are established following selection of transfected cells with Geneticin® (Invitrogen Corporation, Carlsbad, Calif.).\nas §1\ncAMP responses in the 293-S/EP4 lines are determined by detaching cells from culture flasks in 1 ml of calcium (Ca++) and magnesium (Mg++) deficient phosphate buffered saline (PBS) via vigorous pounding and then rinsing the cells with calcium (Ca++) and magnesium (Mg++) deficient phosphate buffered saline (PBS). The cells are resuspended in MEM (Minimum Essential Medium), 1% BSA (bovine serum albumin), 50 mM HEPES (N-[2-Hydroxyethyl]piperazine-N′-[2-ethanesulfonic acid]) at 37° C. The cell suspension is counted on a hemacytometer and diluted by adding MEM (Minimum Essential Medium) to a final concentration of 1×10^6 cells/ml, and adding 3-isobutyl-1-methylxanthine (IBMX) to a final concentration of 1 mM. 200 microliters of cell suspension is immediately aliquoted into individual tubes and incubated for 10 minutes, uncovered, at 37° C., 5% CO2, 95% relative humidity. The compound of Formula I or II to be tested in either dimethylsulfoxide (DMSO) or ethanol is then added to cells at 1:100 dilutions such that the final DMSO or ethanol concentration is 1%. Typically, the cells are treated with 6-8 different concentrations (in 1 log increments, such as those described below) of the compound of Formula I or II. Typical concentrations of the compound of Formula I or II in this assay are between 10^−5M to 10^−10M. For example, a six point compound dose response assay tests the compound of Formula I or II at concentrations of 10^−5M, 10^−6M, 10^−7M, 10^−8M, 10^−9M and 10^—10M. Immediately after adding the test compound, the tubes are covered, mixed by inverting two times, and incubated at 37° C. for 12 minutes. Samples are then lysed by incubation at 100° C. for 10 minutes and immediately cooled on ice for 5 minutes to approximately 4° C. Cellular debris is pelleted by centrifugation at 3500×g for 5 minutes at approximately 4° C., and cleared lysates are transferred to fresh tubes. cAMP concentrations are determined using a commercially available ^125I-cAMP radioimmunoassay (RIA) kit (NEK-033, Perkin-Elmer Life Sciences, Inc., Boston, Mass.). The cleared lysates are diluted 1:100 in cAMP RIA assay buffer (included in kit) and centrifuged again. 50 microliters of the resulting supernatant is transferred to a 12×75 mm glass tube and data is collected by scintillation counting using a Wallac Cobra II Gamma Counter (Perkin-Elmer Wallac, Inc., Gaithersburg, Md.). EC50 calculations are performed on a calculator using linear regression analysis on the linear portion of the dose response curves or using Data Fitter."}}, "data": [{"compound": "CCCCC[C@H](O)/C=C/[C@H]1[C@H](O)CC(=O)[C@@H]1C/C=C\\CCCC(=O)O", "note": "[PGE2, Prostaglandin E2]", "values": [{"measurement": "Kd", "setting": "rat EP4 receptor [1]", "result": 2.9, "unit": "nM"}]}, {"compound": "O=C1CCC(CCC(O)Cc2ccc(F)cc2)N1CCCCCCc1nn[nH]n1", "note": "(stereo not drawn) [Example 5, 5-[4-(4-Fluoro-phenyl)-3-hydroxy-butyl]-1-[6-(2H-tetrazol-5-yl)-hexyl]-pyrrolidin-2-one]", "values": [{"measurement": "IC50", "setting": "human EP3 receptor", "result": "> 3200", "unit": "nM"}, {"measurement": "IC50", "setting": "rat EP4 receptor [2]", "result": 508, "unit": "nM"}, {"measurement": "IC50", "setting": "human EP1 receptor", "result": "> 3200", "unit": "nM"}, {"measurement": "IC50", "setting": "rat EP2 receptor", "result": "> 3200", "unit": "nM"}]}, {"compound": "O=C(O)CCCCCCN1C(=O)CC[C@@H]1CCC(O)Cc1cccc(Oc2ccccc2)c1", "note": "(stereo partly drawn) [Example 10, 7-{2S-[3-Hydroxy-4-(3-phenoxy-phenyl)-butyl]-5-oxo-pyrrolidin-1-yl}-heptanoic acid]", "values": [{"measurement": "IC50", "setting": "rat EP4 receptor [2]", "result": 536, "unit": "nM"}]}, {"compound": "O=C1CC[C@H](CC[C@@H](O)Cc2cccc(Cl)c2)N1CCCCCCc1nn[nH]n1", "note": "[Example 8, 5S-[4-(3-Chloro-phenyl)-3R-hydroxy-butyl]-1-[6-(2H-tetrazol-5-yl)-hexyl]-pyrrolidin-2-one]", "values": [{"measurement": "EC50", "setting": "rat EP4 receptor [3]", "result": 24.6, "unit": "nM"}, {"measurement": "IC50", "setting": "rat EP4 receptor [2]", "result": 28, "unit": "nM"}, {"measurement": "IC50", "setting": "rat EP2 receptor", "result": "> 3200", "unit": "nM"}]}, {"compound": "O=C1CCC(CCC(O)Cc2cccc(F)c2)N1CCCCCCc1nn[nH]n1", "note": "(stereo not drawn) [Example 7, 5-[4-(3-Fluoro-phenyl)-3-hydroxy-butyl]-1-[6-(2H-tetrazol-5-yl)-hexyl]-pyrrolidin-2-one]", "values": [{"measurement": "EC50", "setting": "rat EP4 receptor [3]", "result": 200, "unit": "nM"}, {"measurement": "IC50", "setting": "rat EP4 receptor [2]", "result": 96, "unit": "nM"}, {"measurement": "IC50", "setting": "rat EP2 receptor", "result": "> 3200", "unit": "nM"}]}]}
